Measurements as given in patent US20210177814A1, “USE OF GUANABENZ OR DERIVATES THEREOF FOR THE TREATMENT OF TYPE I IFN-DEPENDENT PATHOLOGIES” (INSERM (Institut National de la Santé et de la Recherche …, priority 2018, published 2021).
“Also recorded” adds a separate entry of the source.

Target: T1, TLR3 (Mus musculus, UniProt Q99MB1)
T1 construct: endogenous in cells; host or cells: sorted cDC1 from Flt3L-differentiated mouse bone marrow cultures
T1 sequence (Q99MB1 26-905): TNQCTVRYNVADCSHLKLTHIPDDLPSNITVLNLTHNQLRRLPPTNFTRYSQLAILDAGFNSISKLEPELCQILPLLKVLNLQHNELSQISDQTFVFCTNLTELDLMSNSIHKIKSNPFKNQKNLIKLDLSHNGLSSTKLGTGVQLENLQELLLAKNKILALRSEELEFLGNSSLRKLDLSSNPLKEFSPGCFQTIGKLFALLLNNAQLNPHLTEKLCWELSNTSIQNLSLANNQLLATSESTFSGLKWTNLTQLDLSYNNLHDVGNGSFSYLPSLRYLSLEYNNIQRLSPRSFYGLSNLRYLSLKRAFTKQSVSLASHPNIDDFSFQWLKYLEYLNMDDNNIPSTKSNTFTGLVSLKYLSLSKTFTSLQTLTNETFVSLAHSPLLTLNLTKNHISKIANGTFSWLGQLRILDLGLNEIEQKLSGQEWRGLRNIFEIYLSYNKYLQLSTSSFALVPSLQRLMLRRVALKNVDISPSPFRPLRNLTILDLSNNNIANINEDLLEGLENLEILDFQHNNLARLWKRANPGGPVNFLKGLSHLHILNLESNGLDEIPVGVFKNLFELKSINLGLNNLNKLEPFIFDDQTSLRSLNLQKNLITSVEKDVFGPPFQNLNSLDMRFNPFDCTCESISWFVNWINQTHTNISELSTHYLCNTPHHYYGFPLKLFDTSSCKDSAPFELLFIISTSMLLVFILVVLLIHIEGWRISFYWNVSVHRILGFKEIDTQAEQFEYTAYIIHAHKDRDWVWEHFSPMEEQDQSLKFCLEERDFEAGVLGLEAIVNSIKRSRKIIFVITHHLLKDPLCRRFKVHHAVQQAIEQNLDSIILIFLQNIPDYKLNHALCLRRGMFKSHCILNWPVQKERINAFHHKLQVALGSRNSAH
Assay: Cytokine production by sorted Flt3L-DC cDC1 activated with poly I:C LMW
Type: cell-based
Conditions: sorted cDC1, 10 μg/mL poly I:C LMW 6 h, GBZ 50 μM
Protocol: FIG. 1: Guanabenz inhibits TLR3 and TLR9 activation in mouse Flt3-L DCs and human blood pDCs. A) Sorted bone marrow derived Flt3L-DCs were activated for 6 h with 10 μg/mL poly I:C LMW (TLR3 in DC1) or 1 μM ODN 1585 (TLR9 in pDCs). GBZ was added at 50 μM and inhibited IFN-β and Interleukin-6 (IL-6) production in activated cells. B) hTLR4, hTLR3, hTLR9 and hTLR7 expressed in the reporter HEK-Blue™ cells are inhibited by GBZ. TLR-expressing HEK-Blue™ cells were respectively activated with 100 ng/mL LPS, 10 μg/mL poly I:C LMW, 2.5 μM ODN 2006 or 5 μg/mL imiquimod, respectively. GBZ was added at 50 μM. TLR activity was measured indirectly through SEAP activity as absorbance at 405 nm. […] Protein concentration of IFN-α and TNF-α secreted were measured at the indicated time points or at 16 h. […]
BM-derived DCs were differentiated in vitro from the bone marrow of 6-8 weeks old male mice, using either FLT3 ligand or GM-CSF. […] For sorted Flt3L-DCs, cells were gently harvested at day 7 with cold PBS 2% FCS, centrifuged 1200 rpm 5 min at 4° C., counted and stained with for 30 mins at 4° C. […]
Mouse IFN-β quantification in culture supernatant was performed using the Mouse Interferon Beta ELISA kit (PBL InterferonSource); mouse IL-6, TNFα, IL-10, human TNFα and human IFNα were quantified using ELISA kit (eBioscience) respectively, according to manufacturer instructions. […]

With `NC(N)=N/N=C/c1c(Cl)cccc1Cl` [GBZ, 2-(2,6-dichlorobenzylidene)-hydrazinecarboximidamide] the IFN-β production was “nearly abrogated; also recorded: inhibited” and the IL-6 production was “nearly abrogated; also recorded: inhibited”.
